The results in this text go back to a melting point compilation (Tetko et al.; mined from patent text by program, amines drawn as free bases though some values may be those of a salt).

Each structure is given as a SMILES string.

What is called melting point is the temperature, or range, at which the solid turns liquid. Consider `N#Cc1nn(-c2c(Cl)cc(C(F)(F)F)cc2Cl)c(N)c1-c1onc(Br)c1Br`, for which the melting point came out at 279 °C.
Then `OP(O)C(NC(c1ccccc1)c1ccccc1)c1ccc2ccccc2c1` (configuration not stated), with 205 to 207 °C; and `CN1CCC(=C2c3ccccc3CC(=O)c3ccccc32)CC1`, with 138 to 140 °C.
As for `Oc1ccc(-c2nc3ccc(O)cc3o2)c(O)c1`, the melting point is 293 to 296 °C.
For `C=C1C[C@@H]2[C@H](CC[C@]3(C)C(=O)CC[C@@H]23)[C@@]2(C)CCC(=O)C(S)=C12`, the melting point fell in the range of 195 to 197 °C.
With `O=c1[nH]c2scc(Br)c2[nH]c1=O`, the melting point fell in the range of 295 to 296 °C.
`O=S(=O)(c1ccccc1)c1ccc2c(c1)OCCN2C1CCNC1` (configuration not stated) yielded a melting point of 123 to 128 °C.
`CC(C)NC(=O)N(Nc1cccc(Cl)c1Cl)C1=CCCN1` had a melting point of 109 to 111 °C.
Regarding `COc1cc(CC2(C#N)c3cc(Cl)c(Cl)cc3C=CN2C(=O)c2ccccc2)cc(OC)c1OC` (configuration not stated), the melting point fell in the range of 193 to 195 °C.
On to `CC(C)(C)OC(=O)NC1CCCCCC=CC2CC2(C(=O)NS(=O)(=O)C2CC2)NC(=O)C2CC(OC(=O)c3ccc4c(c3)OCO4)CN2C1=O` (configuration not stated), for which the melting point was in the range of 153 to 155 °C.
Then `COc1cc(OC(C)=O)c(OC)c(CCCCCc2c(OC)c(OC(C)=O)cc(OC)c2OC(C)=O)c1OC(C)=O`, with 94.5 to 95 °C; and `COC(=O)[C@H](CSC(=O)N(C)C)NC(C)=O`, with 119 to 121 °C; and `O=C1O[C@@H](Cn2ccnn2)CN1c1ccc(-c2ccc(C3=NOC(C(O)c4ccccc4)C3)nc2)c(F)c1` (some centres not stated), with 182 °C.
Then `CC(C)(C)C(OC(=O)Nc1ccccc1)C(=CC1CCCCC1)n1cncn1` (configuration not stated), with 156 °C.
`COC(=O)c1ccccc1N=CNc1nnn[nH]1` gave a melting point of 199 to 200 °C.
Molecule `CN(C1=NCCO1)c1ccc(C(O)(C(F)(F)F)C(F)(F)F)cc1` yielded a melting point of 188 to 190 °C.
The molecule `CN(CCN(C)C1=C(O)C(=O)c2ccccc2C1=O)Cc1ccccc1` came in with a melting point of 121 to 123 °C.
Then `O=C(Nc1cccc(-c2cccc(-n3c(=O)c(Cc4cccnc4)nc4cccnc43)c2)c1)C(F)(F)F`, with 138 to 144 °C; and `O=C1CN(C(=O)c2ccccc2Cl)c2ccccc2N1`, with 222 to 224 °C; and `O=C(NCCCO)c1ccc(O)cc1`, with 118 to 120 °C.
To `CNC(=C[N+](=O)[O-])NCCSCC1(OC)C=CC=NC1` (configuration not stated) belongs 146 to 147 °C.
In turn, `CCOc1ccc2c(c1)C(=O)Cc1c(Cl)cccc1S2` registered a melting point of 121 to 123 °C.
With `CNC1=NS(=O)(=O)N=C1NCCSCc1ccccn1`, the melting point was 168 to 171 °C.
Molecule `CCn1cc(C=O)c(-c2ccc([N+](=O)[O-])o2)n1` came in with a melting point of 145 to 146 °C.
Then `Cc1cc(N)c(C(=O)OC(C)C)cc1Oc1ccc(OC(F)(F)F)cc1`, with 71 to 72 °C; and `COc1ccnc(CCc2nc3cc(-c4ccc(S(=O)(=O)NCCO)cc4)cnc3[nH]2)c1`, with 218 to 220 °C.
For the molecule `CCN(CC)Cc1nc2cc(OC)c(OC)cc2c(-c2ccc(OC)c(OC)c2)c1Cl`, the melting point lay in the range of 146 to 148 °C.
To `CCC(C)CNC(=O)C(CC(O)C(CC(C)C)NC(=O)C(Cc1cscn1)NC(=O)C(Cc1cccc2ccccc12)NC(=O)OC(C)(C)C)C(C)(C)O` (mixture of isomers) belongs 90 to 92 °C; to `CCNC(=O)c1c(Cl)cccc1[Si](C)(C)c1ccccc1`, 89 to 91 °C; to `C=C(C)C(=O)OCCN(C(=O)c1ccc(C(=O)O)cc1C(=O)O)C(C)(C)C`, 74 °C.
The molecule `CC1(C)CCCC(C)(C)N1c1nc(N2CCCC2)cc(N2CCNCC2)n1` came in with a melting point of 134 to 137 °C.
On to `CC(=O)N1CCC2(CC1)CSC1=C(O2)c2ccccc2C(=O)C1=O`, for which the melting point was in the range of 252 to 255 °C.
The molecule `CC(O)COc1cccc2oc(C(N)=O)cc(=O)c12` (configuration not stated) came in with a melting point of 229 to 231 °C.
Molecule `COC(=O)[C@H](CSSC[C@H](NC(=O)[C@@H]1CCC(=O)N1)C(=O)OC)NC(=O)[C@@H]1CCC(=O)N1` displayed a melting point of 160 to 162 °C.
Molecule `c1ccc(N2CC3CCC(C2)O3)cc1` came in with a melting point of 84 to 85 °C.
`CSc1cc(CF)nc(N)n1` came in with a melting point of 95 to 97 °C.
In the case of `c1ccc2c(c1)CCc1cc(C3CO3)ccc1-2` (configuration not stated), the melting point is 65 to 66 °C.
With `COc1ccccc1CNc1cccc(-c2ccnc3c(C(=O)c4cccs4)cnn23)c1`, the melting point lay within 138 to 140 °C.
To `O=C(O)c1ccc(OCCCCn2c(-c3ccccc3)nc(-c3ccccc3)c2-c2ccccc2)cc1` belongs 202 to 203 °C; to `CO/N=C(/C)c1cccc(NC(=O)NCC(=O)N(CC(=O)N(C)c2ccccc2)c2ccccc2)c1`, 165 °C; to `CCCc1cccc2c(/C=C(\C)C(=O)O)cc(OC)c(O)c12`, 67 to 68 °C.
Then `Clc1cccc(Nc2ncnc3[nH]nc(NCc4ccc(-c5ccccc5)cc4)c23)c1`, with 250 to 252 °C; and `CCOC(=O)c1cc(C#Cc2ccccn2)c2ccccc2n1`, with 129 to 131 °C.
On to `COc1ccc(C(C)C)cc1-c1cc(-c2nnnn2C2CCN(C(=O)OC(C)(C)C)CC2)c(OCc2ccccc2)cc1OCc1ccccc1`, for which the melting point is 77 to 81 °C.
Then `CN(C)CCNc1c(-c2ccccc2)c(=O)[nH]c2cc(Cl)ccc12`, with 230 °C; and `Cc1ncc(CO)c2c1OC(C(F)(F)F)C(C(=O)O)=C2` (configuration not stated), with 76.1 to 80.1 °C; and `CC(C)(C)c1nc(Cl)c2ccccc2c1-c1ccccc1`, with 139 to 140 °C.
Then `O=S1(=O)N=CN(C2CC2)c2ccc(Br)cc21`, with 242 to 244 °C; and `O=C(NC(Cc1c[nH]c2ccccc12)C(=O)C(=O)CCl)OC1C2CC3CC(C2)CC1C3` (configuration not stated), with 56 to 63 °C; and `Nc1nnc2c3c(c(N4CCCC4)nn12)CCCC3`, with 243 to 244 °C.
`COC(=O)COc1ccc(C(=O)NN(C)C(=O)OC(C)(C)C)cc1`: the melting point lay in the range of 158 to 159 °C.
As to `CC(C)(C)OC(=O)NC(CO)C(=O)c1ccccc1` (configuration not stated), the melting point lay within 69 to 71 °C.
`CCCc1noc(-c2ccc(N3CCN(C(=O)c4ccccc4C(F)(F)F)CC3)nn2)n1`: the melting point amounted to 226 °C.
For the molecule `CC1C=CC(Oc2ccc(C(=O)O)o2)=C2N=C3CCCCC3=C21` (configuration not stated), the melting point is 150 to 152 °C.
In turn, `CCCCCCCC(=O)N(C)Cc1cccc(-c2ccc(CCC(=O)O)s2)c1` gave a melting point of 67 to 68 °C.
In turn, `CCc1c(C)c(=O)oc2cc(O)ccc12` showed a melting point of 184 °C.
To `CCCc1nc2cnc3cc(OCC(=O)N4CCOCC4)ccc3c2s1` belongs 133 to 136 °C; to `COc1cccc(C2(c3cccc(OC)c3)CC2(C)C=O)c1` (configuration not stated), 122 to 123 °C; to `COC(=O)Nc1ccc(Br)c(F)c1`, 121 to 122 °C.
Then `CC(=O)[NH+]([O-])C[C@@H]1CN(c2ccc(N3CCN(S(C)(=O)=O)CC3)c(F)c2)C(=O)O1` (some centres not stated), with 168 to 170 °C; and `CCCn1nc(C(C)C)c(C(=O)O)c1Cc1ccc(-c2ccccc2NS(=O)(=O)C(F)(F)F)cc1`, with 75 to 78 °C; and `Cc1ncc(-c2ccccc2)c(C(=O)N(C)Cc2cc(C(F)(F)F)cc(C(F)(F)F)c2)n1`, with 149 to 152 °C.
Then `O=C1CCC(c2ccccc2)(c2ccccc2)[C@@H]2CN(C(=O)Cc3c(F)cccc3F)C[C@H]12` (racemic), with 218 °C; and `COc1ccc(C2CCN(C(=O)Nc3ccc4cc(CN5CCCC5)ccc4c3)CC2)cc1`, with 194 to 196 °C.
For `Cc1nc2n(c(=O)c1CCN1CCC(C(=O)c3ccc(F)cc3)CC1)CCCN2Cc1ccccc1`, the melting point turned out to be 126 °C.
`COc1ccc(CNC(=O)c2sc3ccccc3c2Br)cc1`: the melting point was in the range of 123 to 124 °C.
Turning to `CCC(CC)NC(=O)n1nc(Oc2c(Cl)cc(C(F)(F)F)cc2Cl)cc1C`, the melting point lay within 65 to 67 °C.
In the case of `CCCC(=O)N(Cc1ccc(OC(F)(F)F)cc1)c1cc(Cl)cc(-c2nnn[nH]2)c1`, the melting point stood at 179 °C.
To `CC(C)NCC(O)c1ccccc1` (configuration not stated) belongs 90 °C; to `Cc1c(CN2C(=O)c3ccccc3C2=O)cccc1C(F)(F)C(F)(F)c1ccccc1`, 135 to 137 °C; to `CC(=O)SCCS(=O)(=O)N1CCC[C@H]1C(=O)OC(C)(C)C`, 46 to 50 °C.
With `COc1nc(NCCCN2CCOCC2)nc(OC)c1NC(=O)c1csc(Oc2cccc(C(C)(C)C)c2)n1`, the melting point amounted to 68 °C.
As to `COCc1nc(N)nc(N)c1-c1ccc(Cl)c(Cl)c1`, the melting point was 204 to 206 °C.
`CN(C)c1ccc(C=CC(=O)c2ccc3c(c2)CCC3)cc1`: the melting point lay within 106 to 108 °C.
Molecule `COCC(C#N)=Cc1cc(OC)c2c(c1)OCO2` displayed a melting point of 115 °C.
`O=C(CNS(=O)(=O)c1ccc(N2CCC(c3ccccc3)CC2)cc1)NO` displayed a melting point of 164 to 166 °C.
`CS(=O)(=O)c1ccccc1NC(=O)c1ccccc1O` registered a melting point of 142 to 145 °C.
As for `c1ccc(CN(Cc2ccccc2)c2c(-c3ccccc3)sc3ccccc23)cc1`, the melting point fell in the range of 92 to 93 °C.
On to `CCc1c(Oc2ncc(C(F)(F)F)cc2Cl)nn(C(=O)NC)c1C`, for which the melting point was in the range of 84 to 86 °C.
To `CCc1cncnc1Nc1ccc(C(=O)CCC2CCN(Cc3ccccc3)CC2)cc1` belongs 136 to 138 °C; to `CC12CC(=O)C3C(CCC4CC(O)CCC43C)C1CCC2C(=O)COc1ccc(N)cc1` (configuration not stated), 179 to 180 °C.
The molecule `COc1ncccc1C(=O)NCCc1ccc(CC(=O)O)cc1` yielded a melting point of 157 to 158 °C.
For `Cc1cc(Oc2ccc(S(C)(=O)=O)nc2)cc2cc(C3=NCC(CC(=O)NC[C@@H](C)O)S3)[nH]c12` (some centres not stated), the melting point was in the range of 168 to 169 °C.
On to `Cc1ccc(CO[C@H]2CO[C@@H](c3ccccc3)OC2)cc1C`, for which the melting point was 79 to 80 °C.
Molecule `Cc1noc(NS(=O)(=O)c2ccccc2-c2ccsc2)c1C` displayed a melting point of 147 to 148 °C.
To `COc1cc(C(=O)O)c2oc(-c3ccccc3)cc2c1` belongs 185 to 187 °C; to `CS(=O)(=O)Nc1cc2c(cc1Oc1ccccc1)C(NS(C)(=O)=O)C=C2` (configuration not stated), 154 °C.
